A short description of one data set: in vivo. The conditions noted are these: male, Sprague-Dawley, rat, po.
Data set [1] is described as follows: Stability of the analytes in rat plasma QC samples (short-term, autosampler, freeze-thaw, long-term). The conditions noted are these: n = 6.
Data set [2] in a line: Pharmacokinetics study in rats after oral administration of YDXNT (UPLC-QqQ-MS of plasma). The conditions noted are these: male, Sprague-Dawley, rat, plasma, po, 4.8 g kg^−1 d^−1.
Description: (§1) Six milliliters of 75% methanol was added to two milliliters of prepared plasma and then vortexed for 60 s. The mixture was centrifuged at 4000 rpm for 10 min at 4 °C. The supernatant was transferred to another EP tube and dried using a pressure blowing concentrator. The residue was redissolved with 200 μL of 75% methanol, vortexed for 60 s, and then centrifuged at 13 000 rpm for 10 min. To an aliquot of 200 μL plasma, 120 μL of 0.2 mol L^−1 acetic acid–sodium acetate buffer solution (pH = 4.6), 100 μL of the IS baicalein and 80 μL of 980 U mL^−1 β-glucuronidase and sulfatase was added and then vortexed for 1 min. The mixture was hydrolyzed in a water bath at 37 °C for 30 min, and 600 μL acetone was added to stop the hydrolysis. The sample was cooled, followed by vortexing for 2 min and then centrifugation at 13 000 rpm for 10 min. The supernatant fluid was evaporated to dryness under a flow of nitrogen gas.
(§2) Chromatographic analysis was performed using an Agilent 1290 Series UPLC from Agilent Technologies (Palo Alto, CA, USA), equipped with a quaternary pump an online degasser, auto-sampler and column oven. Chromatographic separation was performed on the Agilent ZORBAX SB-Aq C18 column (100 mm × 2.1 mm, 1.8 μm, Agilent, USA). The analytical column temperature was maintained at 30 °C and eluted with a mobile phase comprising 0.1% formic acid in water (A) and acetonitrile (B) using the following gradient program: 25–90% B from 0 to 1 min, 90% B from 1 to 3.5 min, and 90–25% B from 3.5 to 5 min at a flow rate of 0.3 mL min^−1. The equilibration time was 5 min, and the injection volume of sample and reference constituents was 5 μL.
(§3) Mass spectrometry was performed on the Agilent 6490 triple-quadrupole mass spectrometer (Palo Alto, CA, USA) equipped with an atmospheric pressure chemical ionization (APCI) interface. The mass spectrometer was set in negative ionization mode, with the capillary voltage set at 3500 V. The other parameters in the source were set as follows: desolvation gas flow, 15 L min^−1; source temperature, 290 °C; N2 sheath gas temperature, 350 °C; nebulizer gas (N2) pressure, 50 psi; flow, 12 L min^−1. The mass spectrometer scanned in multiple reaction monitoring (MRM) mode.
(§4) Six male rats were used in the pharmacokinetics study. All the rats were orally administered 2.4 g kg^−1 YXCNT suspended in an aqueous solution of 0.5% carboxymethyl cellulose sodium (QCT: 4.118 mg; KMF: 5.067 mg; ISR: 0.965 mg; GA: 1.416 mg; GB: 0.680 mg; GC: 0.796 mg; BB: 0.326 mg; TSIIA: 0.624 mg; SAB: 3.84 mg). After dosing for 0 min, 5 min, 15 min, 20 min, 30 min, 45 min, 1 h, 1.5 h, 2 h, 3 h, 4 h, 6 h, 8 h, 12 h, and 24 h, blood samples (500 μL) were drawn from the retro-orbital plexus of each mouse and collected in heparinized tubes according to the specific schedule. All the collected blood samples were immediately centrifuged at 13 000 rpm for 10 min. The plasma layer was transferred to clean tubes and stored at −20 °C until analysis. The plasma concentrations of QCT, ISR, KMF, GA, GB, GC, BB, TSIIA, and SAB were expressed as the mean ± standard deviation (SD), and the mean concentration–time curve was plotted. Non-compartmental pharmacokinetic parameters were computed using DAS 2.1.1 software.
[3] abbreviates: 1 ng mL^−1, -20°C for four weeks.
The mark [4] stands for this setting: 1 ng mL^−1, room temperature for 6 h before sample preparation.
Where [5] appears, read: 1 ng mL^−1, room temperature for 12 h in the autosampler after sample preparation.
The mark [6] stands for this setting: 1 ng mL^−1, three freeze-thaw cycles -20°C to ambient temperature.
Setting [7] is: 10 ng mL^−1, -20°C for four weeks.
Setting [8] is: 10 ng mL^−1, room temperature for 6 h before sample preparation.
Setting [9] is: 10 ng mL^−1, room temperature for 12 h in the autosampler after sample preparation.
The mark [10] stands for this setting: 10 ng mL^−1, three freeze-thaw cycles -20°C to ambient temperature.
[11] abbreviates: 100 ng mL^−1, -20°C for four weeks.
[12] abbreviates: 100 ng mL^−1, room temperature for 6 h before sample preparation.
[13] abbreviates: 100 ng mL^−1, room temperature for 12 h in the autosampler after sample preparation.
Where [14] appears, read: 100 ng mL^−1, three freeze-thaw cycles -20°C to ambient temperature.

Description for in vivo: as §1, §2, §3, §4

A word on the AUC(0-inf): it is total exposure, with the tail of the curve extrapolated. Low readings indicate less exposure, high ones more exposure. As a reminder, the AUC(0-t) is exposure summed from dosing to a finite time, without extrapolation to infinity. A higher AUC(0-t) goes with more exposure. Broadly, the Cmax is the peak of the concentration-time curve. The MRT is a mean duration of stay, worked out from the concentration-time curve. For orientation: Tmax means the time from dosing to the highest level. A word on the half-life: it is how long it takes for the measured level to halve. Low readings indicate fast loss, high ones slow loss. `C[C@@H]1C(=O)O[C@H]2C[C@@]34[C@H]5C[C@@H](C(C)(C)C)[C@]36[C@@H](OC(=O)[C@@H]6O)O[C@@]4(C(=O)O5)[C@]21O` [GA, ginkgolide A]: in “in vivo”, the AUC(0-inf) was determined as 545 ± 78.9 ng·h/mL. In addition, the AUC(0-t) in the data set “in vivo” is 491 ± 72.6 ng·h/mL. Also, in “in vivo”, the Cmax stood at 76.3 ± 18.2 ng/mL. This compound returned an MRT in “in vivo” of 9.42 ± 1.77 h. The Tmax in the data set “in vivo” was 45 ± 17.4 min. The compound further gave a half-life in the data set “in vivo” of 451 ± 125 min. In addition, the “Long-term stability Accuracy” value in data set [1] (setting [3]) amounted to 98.92 ± 5.81%; in data set [1] (setting [7]), 95.48 ± 10.28%; in data set [1] (setting [11]), 92.19 ± 8.81%. Moreover, the “Short-term stability Accuracy” value in data set [1] (setting [4]) turned out to be 100.59 ± 6.08%; in data set [1] (setting [8]), 102.54 ± 7.33%; in data set [1] (setting [12]), 98.31 ± 5.29%. Also, the “Autosampler stability Accuracy” value is given as 97.28 ± 2.19% in data set [1] (setting [5]), 98.33 ± 3.46% in data set [1] (setting [9]) and 96.83 ± 8.30% in data set [1] (setting [13]). For the same compound, the “Freeze–thaw strability (three cycles) Accuracy” value (“Freeze–thaw strability” for short) in data set [1] (setting [6]) was determined as 102.76 ± 5.39%; in data set [1] (setting [10]) it was 98.42 ± 2.84%; in data set [1] (setting [14]), 95.44 ± 7.51%.

As to `COc1cc(-c2oc3cc(O)cc(O)c3c(=O)c2O)ccc1O` [ISR, isorhamnetin], in the data set “in vivo”, the AUC(0-inf) was 384 ± 55.1 ng·h/mL. Further, in “in vivo”, the exposure AUC(0-t) was 319 ± 49.3 ng·h/mL. In the data set “in vivo”, this compound yielded a Cmax of 27.9 ± 8.38 ng/mL. The MRT in “in vivo” came to 13.9 ± 3.71 h. Also, the Tmax in “in vivo” is 19.8 ± 8.4 min. The same compound had a half-life in “in vivo” of 491 ± 145 min. Also, the “Long-term stability Accuracy” value in data set [1] (setting [3]) was 98.35 ± 6.27%; in data set [1] (setting [7]), 96.44 ± 6.33%; in data set [1] (setting [11]), 95.76 ± 8.18%. Further, the “Short-term stability Accuracy” value in data set [1] (setting [4]) came out at 99.24 ± 6.68%; in data set [1] (setting [8]) it was 96.28 ± 5.89%; in data set [1] (setting [12]), 102.18 ± 4.95%. Further, the “Autosampler stability Accuracy” value in data set [1] (setting [5]) is 98.06 ± 8.29%; in data set [1] (setting [9]) it was 97.72 ± 3.83%; in data set [1] (setting [13]), 98.34 ± 7.61%. For the same compound, the “Freeze–thaw strability” value in data set [1] (setting [6]) is recorded as 103.15 ± 5.43%; in data set [1] (setting [10]), 94.52 ± 3.68%; in data set [1] (setting [14]) it was 99.63 ± 3.38%.

For the compound `O=c1c(O)c(-c2ccc(O)c(O)c2)oc2cc(O)cc(O)c12` [QCT, quercetin], the AUC(0-inf) in data set [2] amounted to 412 ± 82.7 ng·h/mL. Also, the AUC(0-t) in data set [2] is 410 ± 73.2 ng·h/mL. In data set [2], this compound gave a Cmax of 45 ± 11.3 ng/mL. In data set [2], the MRT is 8.44 ± 1.24 h. Further, the Tmax in data set [2] came to 19.8 ± 6.6 min. In data set [2], this compound showed a half-life of 161 ± 39 min. Besides, the “Long-term stability Accuracy” value in data set [1] (setting [3]) is on record as 97.57 ± 3.42%; in data set [1] (setting [7]), 96.41 ± 5.79%; in data set [1] (setting [11]), 93.17 ± 7.35%. For the same compound, the “Short-term stability Accuracy” value came out at 100.23 ± 1.69% in data set [1] (setting [4]), 97.45 ± 4.23% in data set [1] (setting [8]) and 95.97 ± 2.36% in data set [1] (setting [12]). Moreover, the results for the “Autosampler stability Accuracy” value in data set [1] (setting [5]), in data set [1] (setting [9]) and in data set [1] (setting [13]) were 103.73 ± 5.52%, 99.34 ± 6.73% and 94.22 ± 5.14%, respectively. Besides, the “Freeze–thaw strability” value in data set [1] (setting [6]) is listed as 98.27 ± 6.33%; in data set [1] (setting [10]) it was 100.31 ± 4.27%; in data set [1] (setting [14]), 98.35 ± 7.84%.

For the origin of these results see PMC9080097, “Identification of absorbed constituents and evaluation of the pharmacokinetics of main compounds after oral administration of yindanxinnaotong by UPLC-Q-TOF-MS and UPLC-QqQ-MS” (RSC Advances, 2018).
